In PubChem BioAssay AID228 (DTP/NCI, 2004):
“And” between values parts separate entries of the source, which are not always exact repeats. Equal entries are not always repeated. Inconclusive results are not listed.

Tested on: BDF1 mice, Friend leukemia sc, tumor weight T/C
Assay: NCI In Vivo Anticancer Drug Screen. Data for tumor model Friend Virus Leukemia (Solid) (subcutaneous) in B6D2F1 (BDF1) mice
Conditions: endpoint: mean tumor weight, higher = larger tumour
Description: The antitumor activity of compounds was measured in mice bearing transplantable tumors. Survival or tumor size were measured and the results are expressed as the measurement made in the treated group (T) divided by the measurement made in the vehicle treated control group (C). The tumor model used in this assay is Friend Virus Leukemia (Solid) (subcutaneous) in B6D2F1 (BDF1) mice

[1] = dose: 62.0 mg/kg/injection, schedule: Q01DX011 (ip), vehicle: carboxymethylcellulose (CMC)
[2] = dose: 125.0 mg/kg/injection, schedule: Q01DX011 (ip), vehicle: carboxymethylcellulose (CMC)
[3] = dose: 5.0 mg/kg/injection, schedule: Q01DX011 (ip), vehicle: carboxymethylcellulose (CMC)
[4] = dose: 10.0 mg/kg/injection, schedule: Q01DX011 (ip), vehicle: carboxymethylcellulose (CMC)
[5] = dose: 20.0 mg/kg/injection, schedule: Q01DX011 (ip), vehicle: carboxymethylcellulose (CMC)
[6] = dose: 40.0 mg/kg/injection, schedule: Q01DX011 (ip), vehicle: carboxymethylcellulose (CMC)
[7] = dose: 25.0 mg/kg/injection, schedule: Q01DX011 (ip), vehicle: carboxymethylcellulose (CMC)
[8] = dose: 250.0 mg/kg/injection, schedule: Q01DX011 (ip), vehicle: carboxymethylcellulose (CMC)
[9] = dose: 500.0 mg/kg/injection, schedule: Q01DX011 (ip), vehicle: carboxymethylcellulose (CMC)
[10] = dose: 1.0 mg/kg/injection, schedule: Q01DX011 (ip), vehicle: carboxymethylcellulose (CMC)

Compound: C[N+](C)(C)c1ncnc2nc[nH]c12
- T/C (dose: 31.0 mg/kg/injection, schedule: Q01DX011 (ip), vehicle: carboxymethylcellulose (CMC)): 106 % of control
- T/C [1]: 43 % of control
- T/C [2]: 47 % of control

Compound: CN(C)Nc1ncnc2nc[nH]c12
- T/C [3]: 74 % of control
- T/C [4]: 80 % of control
- T/C [5]: 59 % of control and 65 % of control
- T/C [6]: 17 % of control and 35 % of control

Compound: S=P(N1CCOCC1)(N1CC1)N1CC1
- T/C (dose: 12.5 mg/kg/injection, schedule: Q01DX011 (ip), vehicle: carboxymethylcellulose (CMC)): 71 % of control
- T/C [7]: 41 % of control

Compound: CCSCCC(N)C(=O)O (stereo not given)
- T/C (dose: 10.2 mg/kg/injection, schedule: Q01DX011 (ip), vehicle: carboxymethylcellulose (CMC)): 114 % of control
- T/C (dose: 20.5 mg/kg/injection, schedule: Q01DX011 (ip), vehicle: carboxymethylcellulose (CMC)): 80 % of control
- T/C (dose: 41.0 mg/kg/injection, schedule: Q01DX011 (ip), vehicle: carboxymethylcellulose (CMC)): 109 % of control
- T/C (dose: 82.0 mg/kg/injection, schedule: Q01DX011 (ip), vehicle: carboxymethylcellulose (CMC)): 111 % of control

Compound: CN(C)c1ccc2nc3ccc(=[N+](C)C)cc-3sc2c1
- T/C [3]: 278 % of control
- T/C [4]: 175 % of control
- T/C [5]: 171 % of control
- T/C [6]: 235 % of control

Compound: NC(Cc1cccs1)C(=O)O (stereo not given)
- T/C [8]: 112 % of control

Compound: Clc1ccc2c(Cl)ncnc2c1
- T/C (dose: 19.0 mg/kg/injection, schedule: Q01DX011 (ip), vehicle: carboxymethylcellulose (CMC)): 96 % of control
- T/C (dose: 37.5 mg/kg/injection, schedule: Q01DX011 (ip), vehicle: carboxymethylcellulose (CMC)): 59 % of control
- T/C (dose: 75.0 mg/kg/injection, schedule: Q01DX011 (ip), vehicle: carboxymethylcellulose (CMC)): 31 % of control

Compound: CNS(=O)(=O)c1ncnc2nc[nH]c12
- T/C [5]: 94 % of control
- T/C (dose: 26.0 mg/kg/injection, schedule: Q01DX011 (ip), vehicle: carboxymethylcellulose (CMC)): 86 % of control
- T/C (dose: 35.0 mg/kg/injection, schedule: Q01DX011 (ip), vehicle: carboxymethylcellulose (CMC)): 96 % of control
- T/C (dose: 70.62 mg/kg/injection, schedule: Q01DX011 (ip), vehicle: carboxymethylcellulose (CMC)): 43 % of control
- T/C (dose: 107.0 mg/kg/injection, schedule: Q01DX011 (ip), vehicle: carboxymethylcellulose (CMC)): 49 % of control

Compound: CCCCCCCCCCCC[n+]1c(C)cc(N)c2ccccc21
- T/C (dose: 0.1 mg/kg/injection, schedule: Q01DX011 (ip), vehicle: carboxymethylcellulose (CMC)): 182 % of control

Compound: CCCCSc1nc(N)nc2c1ncn2CC(C)CC (stereo not given)
- T/C [2]: 68 % of control
- T/C [8]: 75 % of control
- T/C [9]: 23 % of control

Compound: OCC1OC(n2cnc3c(Cl)ncnc32)C(O)C1O (stereo not given)
- T/C [1]: 93 % of control
- T/C [2]: 105 % of control
- T/C [8]: 109 % of control
- T/C [9]: 115 % of control

Compound: Nc1nc(N)c2[nH]cnc2n1
- T/C (dose: 11.0 mg/kg/injection, schedule: Q01DX011 (ip), vehicle: carboxymethylcellulose (CMC)): 109 % of control
- T/C (dose: 22.0 mg/kg/injection, schedule: Q01DX011 (ip), vehicle: carboxymethylcellulose (CMC)): 92 % of control
- T/C (dose: 44.0 mg/kg/injection, schedule: Q01DX011 (ip), vehicle: carboxymethylcellulose (CMC)): 87 % of control
- T/C (dose: 88.0 mg/kg/injection, schedule: Q01DX011 (ip), vehicle: carboxymethylcellulose (CMC)): 66 % of control and 85 % of control

Compound: CCc1ccccc1N1CCN(C(=O)c2cc(OC)c(OC)c(OC)c2)CC1
- T/C (dose: 0.25 mg/kg/injection, schedule: Q01DX011 (ip), vehicle: carboxymethylcellulose (CMC)): 64 % of control
- T/C (dose: 0.5 mg/kg/injection, schedule: Q01DX011 (ip), vehicle: carboxymethylcellulose (CMC)): 73 % of control
- T/C [10]: 64 % of control
- T/C (dose: 2.0 mg/kg/injection, schedule: Q01DX011 (ip), vehicle: carboxymethylcellulose (CMC)): 53 % of control and 35 % of control
- T/C (dose: 4.0 mg/kg/injection, schedule: Q01DX011 (ip), vehicle: carboxymethylcellulose (CMC)): 67 % of control
- T/C (dose: 8.0 mg/kg/injection, schedule: Q01DX011 (ip), vehicle: carboxymethylcellulose (CMC)): 40 % of control
- T/C (dose: 16.0 mg/kg/injection, schedule: Q01DX011 (ip), vehicle: carboxymethylcellulose (CMC)): 42 % of control
- T/C (dose: 31.0 mg/kg/injection, schedule: Q01DX011 (ip), vehicle: other): 11 % of control

Compound: CC/C(=C(\CC)c1ccc(OC)cc1)c1ccc(O)cc1
- T/C (dose: 3.0 mg/kg/injection, schedule: Q01DX011 (sc), vehicle: steriod suspending solution): 69 % of control
- T/C (dose: 7.0 mg/kg/injection, schedule: Q01DX011 (sc), vehicle: steriod suspending solution): 101 % of control
- T/C (dose: 15.0 mg/kg/injection, schedule: Q01DX011 (sc), vehicle: steriod suspending solution): 79 % of control
- T/C (dose: 30.0 mg/kg/injection, schedule: Q01DX011 (sc), vehicle: steriod suspending solution): 55 % of control
- T/C (dose: 240.0 mg/kg/injection, schedule: Q01DX011 (sc), vehicle: steriod suspending solution): 65 % of control
- T/C (dose: 480.0 mg/kg/injection, schedule: Q01DX011 (sc), vehicle: steriod suspending solution): 63 % of control
- T/C (dose: 960.0 mg/kg/injection, schedule: Q01DX011 (sc), vehicle: steriod suspending solution): 62 % of control
- T/C (dose: 1920.0 mg/kg/injection, schedule: Q01DX011 (sc), vehicle: steriod suspending solution): 63 % of control

Compound: NC(CO)C(=O)O (stereo not given)
- T/C [8]: 108 % of control
- T/C [9]: 112 % of control

Compound: O=c1[nH]cc(N(CCCl)CCCl)c(=O)[nH]1
- T/C (dose: 0.21 mg/kg/injection, schedule: Q01DX011 (ip), vehicle: carboxymethylcellulose (CMC)): 87 % of control
- T/C (dose: 0.42 mg/kg/injection, schedule: Q01DX011 (ip), vehicle: carboxymethylcellulose (CMC)): 99 % of control
- T/C (dose: 0.42 mg/kg/injection, schedule: Q01DX011 (ip), vehicle: saline): 53 % of control
- T/C (dose: 0.85 mg/kg/injection, schedule: Q01DX011 (ip), vehicle: carboxymethylcellulose (CMC)): 36 % of control
- T/C (dose: 0.85 mg/kg/injection, schedule: Q01DX011 (ip), vehicle: saline): 47 % of control
- T/C (dose: 1.3 mg/kg/injection, schedule: Q01DX011 (ip), vehicle: saline): 20 % of control
- T/C (dose: 1.7 mg/kg/injection, schedule: Q01DX011 (ip), vehicle: saline): 13 % of control

Compound: COc1cc(OC)c(OC)cc1/C=C\c1ccnc2ccccc12
- T/C (dose: 63.0 mg/kg/injection, schedule: Q01DX011 (ip), vehicle: carboxymethylcellulose (CMC)): 78 % of control
- T/C [2]: 60 % of control
- T/C [8]: 64 % of control
- T/C [9]: 52 % of control

Compound: NC(Cc1c[nH]c2ccc(N(CCCl)CCCl)cc12)C(=O)O (stereo not given)
- T/C (dose: 0.75 mg/kg/injection, schedule: Q01DX011 (ip), vehicle: saline): 37 % of control
- T/C [10]: 120 % of control
- T/C (dose: 1.5 mg/kg/injection, schedule: Q01DX011 (ip), vehicle: saline): 47 % of control
- T/C (dose: 2.5 micrograms/kg/injection, schedule: Q01DX011 (ip), vehicle: carboxymethylcellulose (CMC)): 71 % of control
- T/C (dose: 5.0 micrograms/kg/injection, schedule: Q01DX011 (ip), vehicle: carboxymethylcellulose (CMC)): 61 % of control
- T/C (dose: 11.0 micrograms/kg/injection, schedule: Q01DX011 (ip), vehicle: carboxymethylcellulose (CMC)): 86 % of control
- T/C (dose: 22.0 micrograms/kg/injection, schedule: Q01DX011 (ip), vehicle: carboxymethylcellulose (CMC)): 90 % of control
- T/C (dose: 45.0 micrograms/kg/injection, schedule: Q01DX011 (ip), vehicle: carboxymethylcellulose (CMC)): 52 % of control
- T/C (dose: 90.0 micrograms/kg/injection, schedule: Q01DX011 (ip), vehicle: carboxymethylcellulose (CMC)): 34 % of control
- T/C (dose: 180.0 micrograms/kg/injection, schedule: Q01DX011 (ip), vehicle: carboxymethylcellulose (CMC)): 40 % of control
- T/C (dose: 370.0 micrograms/kg/injection, schedule: Q01DX011 (ip), vehicle: carboxymethylcellulose (CMC)): 39 % of control

Compound: CO/[N+]([O-])=C\C(=O)N/C=C/C(=O)O
- T/C (dose: 1.25 mg/kg/injection, schedule: Q01DX011 (ip), vehicle: carboxymethylcellulose (CMC)): 103 % of control
- T/C (dose: 2.5 mg/kg/injection, schedule: Q01DX011 (ip), vehicle: carboxymethylcellulose (CMC)): 105 % of control
- T/C [4]: 61 % of control
- T/C (dose: 15.0 mg/kg/injection, schedule: Q01DX011 (ip), vehicle: carboxymethylcellulose (CMC)): 53 % of control
- T/C [7]: 52 % of control

Compound: CC1NC(=O)NC1CCCCCC(=O)O (stereo not given)
- T/C (dose: 89.0 mg/kg/injection, schedule: Q01DX011 (ip), vehicle: carboxymethylcellulose (CMC)): 169 % of control
- T/C (dose: 178.0 mg/kg/injection, schedule: Q01DX011 (ip), vehicle: carboxymethylcellulose (CMC)): 119 % of control
